Data from patent publication US10316017B2, “COT modulators and methods of use thereof” (Gilead Sciences, Inc., priority 2015, dated 2019).

Columns and labels:
[1] = target: T1, human Cot catalytic domain (30-397 amino acids) (Homo sapiens, UniProt P41279); test: High Throughput Cot Biochemical Assay (KinEASE TR-FRET); details: Cot KinEASE TR-FRET (HTRF) biochemical assay, 400 μM ATP; read-out: IC50 HTRF
T1 construct: Purified recombinant human Cot catalytic domain (30-397 amino acids) was purchased from Cama Biosciences; purchased Cama Biosciences (so in the source)
T1 sequence (P41279 30-397): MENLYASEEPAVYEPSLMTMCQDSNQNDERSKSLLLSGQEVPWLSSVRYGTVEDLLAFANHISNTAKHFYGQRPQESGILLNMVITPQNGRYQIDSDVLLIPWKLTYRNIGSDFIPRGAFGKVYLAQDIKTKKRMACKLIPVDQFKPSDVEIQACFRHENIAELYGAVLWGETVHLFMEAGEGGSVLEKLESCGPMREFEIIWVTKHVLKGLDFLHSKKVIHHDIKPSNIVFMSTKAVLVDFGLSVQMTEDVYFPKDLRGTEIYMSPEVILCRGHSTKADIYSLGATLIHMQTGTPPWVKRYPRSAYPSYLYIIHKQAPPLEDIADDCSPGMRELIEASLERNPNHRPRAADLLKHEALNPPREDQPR
In short: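 TR-FRET (KinEASE) read-out: Eu-labelled phospho-specific antibody binds XL665-tagged STK3 peptide (1 μM) phosphorylated by 5 nM human Cot kinase domain (residues 30-397). Reaction at 400 μM ATP, pH 7.0 MOPS buffer with 10 mM MgOAc, 1 mM DTT and 0.1% DMSO.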

[2] = test system: TNFα production in LPS-stimulated human monocytes; test: Cot Monocyte TNFα Cell Based Assay; details: Homo sapiens, Monocyte, TNFα in LPS-stimulated human monocytes; read-out: EC50 TNF
In short: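 TNFα release quantified by two-antibody TR-FRET, normalised to unstimulated (0%) and LPS-stimulated (100%) wells. Cells got a 1 h compound exposure at 37° C in 0.5% DMSO before 4 h challenge with 50 pg/ml LPS, at 5,000 cells/well.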

| Compound | IC50 [1] [nM] | EC50 [2] [nM] |
| --- | --- | --- |
| [2H]C(Nc1cc(Cl)c2ncc(C#N)c(N[C@H](CC)c3ccccc3)c2c1F)(c1cccc(C#N)c1)c1cn(C2CC2)nn1 (stereo partly drawn) [Compound 36] | > 10000 | > 10000 |
| [2H][C@](Nc1cc(Cl)c2ncc(C#N)c(N[C@H](CC)c3ccccc3)c2c1)(c1cccc(C#N)c1)c1cnnn1C1CC1 [Compound 37] | 810 | > 1000 |
| CCN1CCC(n2cc([C@@H](Nc3cc(Cl)c4ncc(C#N)c(Nc5ccc(F)c(Cl)c5)c4c3)c3cccc(C(=O)N(C)C)c3)nn2)CC1 [Compound 41] | 1 | 74 |
| CC(C)(C)N1CCC(n2cc([C@@H](Nc3cc(Cl)c4ncc(C#N)c(Nc5ccc(F)c(Cl)c5)c4c3)c3cccc(C=O)c3)nn2)CC1 [Compound 42] | 5 | 138 |
| [2H][C@](Nc1cc(O)c2ncc(C#N)c(NCC(C)(C)C)c2c1)(c1ccc(F)cc1)c1cn(C2CC2)nn1 [Compound 43] | 1940 | > 10000 |
| [2H][C@](Nc1cc(Cl)c2ncc(C#N)c(Nc3cnc(F)c(F)c3)c2c1)(c1ccc(F)cc1)c1cn(CF)nn1 [Compound 44] | 53 | 902 |
| Cn1cc([C@@H](Nc2cc(Cl)c3ncc(C#N)c(Nc4cnc(F)c(F)c4)c3c2)c2ccccc2F)nn1 [Compound 45] | 10 | 877 |
| CC(C)(C)CNc1c(C#N)cnc2c(C#N)cc(N[C@@H](c3cccc(C(=O)N4CC(F)C4)c3)c3cn(C4CC4)nn3)cc12 [Compound 58] | 3 | 269 |
| CC(C)(C)CNc1c(C#N)cnc2c(C#N)cc(N[C@@H](c3cccc(C(N)=O)c3)c3cn(C4CC4)nn3)cc12 [Compound 59] | 1 | 612 |
| CC(C)(C)CNc1c(C#N)cnc2c(Br)cc(N[C@@H](c3cccc(C(=O)O)c3)c3cn(C4CC4)nn3)cc12 [Compound 60] | 17 | > 1000 |
| [2H][C@](Nc1cc(Cl)c2ncc(C#N)c(N[C@H](CC)c3ccccc3)c2c1)(c1cccc(C#N)c1)c1cn(CC=C)nn1 [Compound 61] | 3 | 75 |
| [2H][C@](Nc1cc(-c2cnc(C)nc2)c2ncc(C#N)c(NCC(C)(C)C)c2c1)(c1ccc(F)cc1)c1cn(C2CC2)nn1 [Compound 62] | 29 | 447 |
| CC[C@@H](Nc1c(C#N)cnc2c(Cl)cc(N[C@H](c3cn(C4(C#N)CC4)nn3)c3ccccc3Cl)cc12)c1ccccc1 [Example 49, 8-chloro-6-(((S)-(2-chlorophenyl)(1-(1-cyanocyclopropyl)-1H-1,2,3-triazol-4-yl)methyl)amino)-4-(((R)-1-phenylpropyl)amino) quinoline-3-carbonitrile] | 26 | 330 |
| [2H][C@](Nc1cc(Cl)c2ncc(C#N)c(N[C@H](CCC#N)c3ccccc3)c2c1)(c1cccc(C#N)c1)c1cn(C(F)(F)CO)nn1 [Example 51, 8-chloro-4-(((R)-3-cyano-1-phenylpropyl)amino)-6-(((S)-(3-cyanophenyl) (1-(1,1-difluoro-2-hydroxyethyl)-1H-1,2,3-triazol-4-yl)methyl-d)amino) quinoline-3-carbonitrile] | 1 | 57 |
| CC(C)(C)CNc1c(C#N)cnc2c(Br)cc(N[C@@H](c3cccc(C(=O)N4CC(O)C4)c3)c3cn(C4CC4)nn3)cc12 [Example 52, (S)-8-bromo-6-(((1-cyclopropyl-1H-1,2,3-triazol-4-yl) (3-(3-hydroxyazetidine-1-carbonyl)phenyl)methyl)amino)-4-(neopentylamino) quinoline-3-carbonitrile] | 4 | > 1000 |
| CC(C)(C)CNc1c(C#N)cnc2c(Br)cc(N[C@@H](c3cccc(C(=O)N4CC(F)C4)c3)c3cn(C4CC4)nn3)cc12 [Example 53, (S)-8-bromo-6-(((1-cyclopropyl-1H-1,2,3-triazol-4-yl)(3-(3-fluoroazetidine-1-carbonyl)phenyl)methyl)amino)-4-(neopentylamino) quinoline-3-carbonitrile] | 5 | 163 |
| CC(C)(C)CNc1c(C#N)cnc2c(Br)cc(N[C@@H](c3cccc(C(N)=O)c3)c3cn(C4CC4)nn3)cc12 [Example 54, (S)-3-(((8-bromo-3-cyano-4-(neopentylamino)quinolin-6-yl)amino) (1-cyclopropyl-1H-1,2,3-triazol-4-yl)methyl)benzamide] | 2 | 267 |
| CNC(=O)c1cccc([C@H](Nc2cc(C#N)c3ncc(C#N)c(NCC(C)(C)C)c3c2)c2cn(C3CC3)nn2)c1 [Example 55, (S)-3-((1-cyclopropyl-1H-1,2,3-triazol-4-yl) ((3,8-dicyano-4-(neopentylamino)quinolin-6-yl)amino)methyl)-N-methylbenzamide] | 2 | 414 |
| CC(C)(C)CNc1c(C#N)cnc2c(C#N)cc(N[C@@H](c3cccc(C(=O)N4CC(F)(F)C4)c3)c3cn(C4CC4)nn3)cc12 [Example 56, (S)-6-(((1-cyclopropyl-1H-1,2,3-triazol-4-yl)(3-(3,3-difluoroazetidine-1-carbonyl)phenyl)methyl)amino)-4-(neopentylamino) quinoline-3,8-dicarbonitrile] | 3 | 184 |
| CC(C)(C)CNc1c(C#N)cnc2c(C#N)cc(N[C@@H](c3cccc(C(=O)N4CC(O)C4)c3)c3cn(C4CC4)nn3)cc12 [Example 57, (S)-6-(((1-cyclopropyl-1H-1,2,3-triazol-4-yl) (3-(3-hydroxyazetidine-1-carbonyl)phenyl)methyl)amino)-4-(neopentylamino) quinoline-3,8-dicarbonitrile] | 3 | > 1000 |
| [2H][C@](Nc1cc(-c2cnco2)c2ncc(C#N)c(NCC(C)(C)C)c2c1)(c1ccc(F)cc1)c1cn(C2CC2)nn1 [Example 63, (S)-6-(((1-cyclopropyl-1H-1,2,3-triazol-4-yl)(4-fluorophenyl)methyl-d)amino)-4-(neopentylamino)-8-(oxazol-5-yl)quinoline-3-carbonitrile] | 213 | > 1000 |
| [2H][C@](Nc1cc(Cl)c2ncc(C#N)c(NC3CCOC(C)(C)C3)c2c1)(c1ccc(F)cc1)c1cn(C2CC2)nn1 (stereo partly drawn) [Example 64, 8-chloro-6-(((S)-(1-cyclopropyl-1H-1,2,3-triazol-4-yl)(4-fluorophenyl)methyl-d)amino)-4-((2,2-dimethyltetrahydro-2H-pyran-4-yl)amino) quinoline-3-carbonitrile] | 106 | > 1000 |
| N#CCC[C@@H](Nc1c(C#N)cnc2c(Cl)cc(N[C@H](c3cn(C4COC4)nn3)c3ccccc3Cl)cc12)c1ccccc1 [Example 65, 8-chloro-6-(((S)-(2-chlorophenyl)(1-(oxetan-3-yl)-1H-3-triazol-4-yl)methyl)amino)-4-(((R)-3-cyano-1-phenylpropyl)amino) quinoline-3-carbonitrile] | 3 | 95 |
| N#CCC[C@@H](Nc1c(C#N)cnc2c(Cl)cc(N[C@H](c3cn(CC#N)nn3)c3ccccc3Cl)cc12)c1ccccc1 [Example 66, 8-chloro-6-(((S)-(2-chlorophenyl)(1-(cyanomethyl)-1H-1,2,3-triazol-4-yl)methyl)amino)-4-(((R)-3-cyano-1-phenylpropyl)amino) quinoline-3-carbonitrile] | 5 | 96 |
